Laboratory results reported in PMC4324493, “Synthesis, ^68Ga-Radiolabeling, and Preliminary In Vivo Assessment of a Depsipeptide-Derived Compound as a Potential PET/CT Infection Imaging Agent” (BioMed Research International, 2015).
Residues, ends and D or L forms follow the SMILES beside them. No end group written: not given here. *: point of attachment. DOTA = O=C(O)CN1CCN(CC(=O)O)CCN(CC(=O)*)CCN(CC(=O)O)CC1

How the values were obtained:
[1] = in vitro; assay type: cell-based; settings: human; for CC50 at 120 h: MT-4 cells
Method: The reduction of 2,3-bis-(2-methoxy-4-nitro-5-sulfophenyl)-2-H-tetrazolium-5-carboxanilide (XTT) was used to determine the cellular cytotoxicity of TBIA101, DOTA-TBIA101, and ^natGa-DOTA-TBIA101, as described by Scudiero et al.. MT-4 cells were obtained through the NIH AIDS Reagent Program, Division of AIDS, NIAID, NIH: MT-4 from Dr. Douglas Richman and were cultured and all incubations were done in RPMI medium containing 10% fetal calf serum at 37°C and 5% CO2-atmosphere. A 6 × 10^5 cells/mL concentration was used to seed cells into 96-well culture plates (total cell number of 2 × 10^4 per well) followed by exposure to eight 5-fold dilutions of the stock compound solutions (1 mg/mL). The plates were incubated for 5 days before XTT was added to react for 4 h. Formazan production was quantified, measuring absorbance at 450 nm (reference wavelength 620 nm), and related to the absorbance of untreated control cells (RPMI background). Cytotoxicity was determined by extrapolating the inhibitory concentration at 50% (IC50).

[2] = test system: E. coli (ATCC 25922); assay: Bacterial association assay (MALDI-TOF-MS), E. coli; assay type: binding, Escherichia coli; settings: for Kd: E. coli 1.5 × 10^8 CFU, 20-100 μM compound, 37°C, 3 h, MALDI-TOF-MS, read-out: affinity binding constant (K); for bacterial binding and internalization (qualitative): E. coli, membrane-associated (sample 1) and cell-internalized (sample 2) fractions by MALDI-TOF-MS
Method: (§1) MALDI-TOF-MS analysis was performed on an Autoflex III MALDI-TOF mass spectrometer (Bruker, Coventry, United Kingdom) with a 337 nm nitrogen laser operating in a linear mode at an accelerated voltage of 20 kV. The α-cyano-4-hydroxycinnamic acid matrix was applied: the matrix solution was prepared by making a saturated solution of the matrix powder into TA30 solution (30% ACN and 70% water containing 0.1% TFA). A MALDI plate-sandwich method was used by spotting the compounds between spots of matrix solution. Analyses were done in triplicates; spectra were collected manually and the mass peak intensities were recorded. S. aur and E. coli strains were cultured at 37°C overnight and tested with the peptide (TBIA101), the peptide-conjugate (DOTA-TBIA101), and the gallium(III)-complexed derivative (^natGa-DOTA-TBIA101). The bacterial concentration was kept at 1.5 × 10^8 colony forming units (CFU). Five different concentrations (20, 40, 60, 80, and 100 μM) of the above-mentioned compounds were used for all experiments, following the described method. The final reaction volume was 600 μL. Bacteria and compound mixtures were incubated at 37°C in an orbital shaker at 100 rpm for 3 h. After incubation, the cells were centrifuged at 3000 ×g for 20 min and the supernatant was removed. The bacterial pellet was washed twice with 200 μL of phosphate buffered saline (pH 7.4) and 200 μL of 80% ACN containing 0.1% TFA was added to dissolve the pellet followed by vigorous mixing followed by centrifugation at 3000 ×g for 20 min. The supernatant (sample 1) was collected, representing the membrane-associated compound fraction. The residual pellet was treated with 200 μL of 80% ACN (sample 2), representing the cell-internalized compound fraction. Bacterial persistence in samples 1 and 2 was qualified with MALDI-TOF-MS.

[3] = test system: Staphylococcus aureus (ATCC 25923) (S. aur); assay: Bacterial association assay (MALDI-TOF-MS), S. aur; assay type: binding; settings: for affinity binding constant (K): S. aur 1.5 × 10^8 CFU, 20-100 μM compound, 37°C, 3 h, MALDI-TOF-MS; for bacterial binding and internalization (qualitative): S. aur, membrane-associated (sample 1) and cell-internalized (sample 2) fractions by MALDI-TOF-MS
Method: as §1

Row | Compound | IC50 at 5 days [1] | Kd [2] | bacterial binding and internalization (qualitative) [2] | affinity binding constant (K) [3] | bacterial binding and internalization (qualitative) [3] | CC50 at 120 h [1]
1 | CC[C@H](C)[C@H](NC(=O)[C@@H](NC(=O)[C@H](CC(C)C)NC(=O)[C@@H](NC(=O)[C@@H]1CCCN1C(=O)[C@H](CC(C)C)NC(=O)[C@@H]1CCCN1C(=O)CN1CCN(CC(=O)O)CCN(CC(=O)O)CCN(CC(=O)O)CC1)C(C)C)[C@@H](C)O)C(=O)NCC(=O)NCC(N)=O [natGa-DOTA-TBIA101, metal not drawn] ({DOTA}-PLPVLTIGG-NH2) | 33.7 µM | 2.58 ± 1.04 nM | internalization | 2.97 ± 0.86 nM | internalization | 
2 | CC[C@H](C)[C@H](NC(=O)CNC(=O)CNC(=O)CN1CCN(CC(=O)O)CCN(CC(=O)O)CCN(CC(=O)O)CC1)C(=O)N[C@H](C(=O)N[C@@H](CC(C)C)C(=O)N[C@H](C(=O)N1CCC[C@H]1C(=O)N[C@@H](CC(C)C)C(=O)N1CCC[C@H]1C(N)=O)C(C)C)[C@@H](C)O [DOTA-TBIA101] ({DOTA}-GGITLVPLP-NH2) |  | 0.028 ± 0.006 nM | binding and no detectable internalization | 0.029 ± 0.006 nM | binding and no detectable internalization | 42.1 µM
3 | GGITLVPLP-NH2 (C-terminus assumed) [TBIA101] |  | 0.022 ± 0.006 nM | binding and internalization | 0.023 ± 0.007 nM | binding and internalization | 63.2 µM
